Experimental data reported in BindingDB's records for doi:10.1016/j.bmcl.2003.09.075 (Eli Lilly, 2003).

Experiments:
[1] = biological target: NS3 protease (Hepatitis C virus); assay: Inhibitory activity against HCV protease in enzyme inhibition assay
[2] = biological target: NS3 protease (Hepatitis C virus); assay: Inhibitory activity against HCV protease using replicon assay […]
[3] = biological target: NS3 protease (Hepatitis C virus); assay: Binding affinity towards Protease using PNA assay
[4] = biological target: NS3 protease (Hepatitis C virus); assay: Inhibitory activity against Protease using replicon assay […] at 25 uM concentration

CC(C)[C@H](NC(=O)c1cnccn1)C(=O)N[C@H](C(=O)N1C[C@@H]2CCC[C@@H]2[C@H]1C(=O)N[C@@H](CC(F)F)C(=O)C(=O)N[C@@H](C)c1ccccc1)C(C)C [(1S,5S,6R)-2-((S)-3-Methyl-2-{(S)-3-methyl-2-[(pyrazine-2-carbonyl)-amino]-butyrylamino}-butyryl)-octahydro-cyclopenta[c]pyrrole-1-carboxylic acid [3,3-difluoro-1-((S)-(S)-1-phenyl-ethylaminooxalyl)-propyl]-amide]
Ki [1]: 0.4 µM | IC50 [2]: 0.91 µM

CCC(C)NC(=O)C(=O)[C@H](CC(F)F)NC(=O)[C@@H]1[C@H]2CCC[C@H]2CN1C(=O)[C@@H](NC(=O)[C@@H](NC(=O)c1cnccn1)C(C)C)C(C)(C)C (stereo partly drawn) [(1S,5S,6R)-2-((S)-3,3-Dimethyl-2-{(S)-3-methyl-2-[(pyrazine-2-carbonyl)-amino]-butyrylamino}-butyryl)-octahydro-cyclopenta[c]pyrrole-1-carboxylic acid [1-((S)-sec-butylaminooxalyl)-3,3-difluoro-propyl]-amide]
Ki [3]: 0.48 µM | IC50 [2]: 2.61 µM

CC(C)[C@H](NC(=O)c1cnccn1)C(=O)N[C@H](C(=O)N1C[C@@H]2CCC[C@@H]2[C@H]1C(=O)N[C@@H](CC(F)F)C(=O)C(=O)N[C@@H](C)c1ccccc1)C(C)(C)C [(1S,5S,6R)-2-((S)-3,3-Dimethyl-2-{(S)-3-methyl-2-[(pyrazine-2-carbonyl)-amino]-butyrylamino}-butyryl)-octahydro-cyclopenta[c]pyrrole-1-carboxylic acid [3,3-difluoro-1-((S)-(S)-1-phenyl-ethylaminooxalyl)-propyl]-amide]
Ki [3]: 0.12 µM | IC50 [2]: 0.63 µM

CCC[C@H](NC(=O)[C@@H]1[C@H]2CCC[C@H]2CN1C(=O)[C@@H](NC(=O)[C@@H](NC(=O)c1cnccn1)C(C)C)C(C)(C)C)C(=O)C(=O)NC(C)CC (stereo partly drawn) [(1S,5S,6R)-2-((S)-3,3-Dimethyl-2-{(S)-3-methyl-2-[(pyrazine-2-carbonyl)-amino]-butyrylamino}-butyryl)-octahydro-cyclopenta[c]pyrrole-1-carboxylic acid [1-((S)-sec-butylaminooxalyl)-butyl]-amide]
Ki [3]: 0.21 µM | IC50 [4]: 3.48 µM

CC(C)[C@H](NC(=O)c1cnccn1)C(=O)N[C@H](C(=O)N1C[C@@H]2CCC[C@@H]2[C@H]1C(=O)NC(CC(F)F)C(=O)C(=O)NC1CC1)C(C)C (stereo partly drawn) [(1S,5S,6R)-2-((S)-3-Methyl-2-{(S)-3-methyl-2-[(pyrazine-2-carbonyl)-amino]-butyrylamino}-butyryl)-octahydro-cyclopenta[c]pyrrole-1-carboxylic acid (1-cyclopropylaminooxalyl-3,3-difluoro-propyl)-amide]
Ki [3]: 0.22 µM | IC50 [4]: 3.78 µM
